Structures can show the parent of a compound that is named as a salt. Where two headings read alike, the source gives them in different places.
Key:
[1] = test system: HCoV-229E; experiment: microbe, parasite or virus in culture; assay type: cell-based, Homo sapiens sapiens
[2] = test system: Huh-7.5/F-Luc cells
[3] = test system: SARS-CoV-2; conditions: for SI (CC50/IC50): CC50 from LDH assay / IC50 from qRT-PCR
[4] = test system: SARS-CoV-2; conditions: for outcome against confirmation criteria of the SARS-CoV-2 counter-screen (<50% infected cell, >75% total cells): single dose of 5 µM
[5] = test system: HCoV-229E; experiment: Twelve-step dose titration against HCoV-229E infection on Huh-7.5/F-Luc/Cas9 cells; assay type: cell-based, Homo sapiens sapiens; conditions: Human coronavirus 229E, Huh7.5, twelve-step 1:3 dilutions, n = 3
[6] = test system: SARS-CoV-2; assay type: cell-based; conditions: dose range 0.15 µM to 10 µM, viral genome copies in apical washes and cellular lysates
[7] = test system: primary human airway epithelial cells; conditions: dose range 0.15 µM to 10 µM, cellular lysates
[8] = test system: SARS-CoV-2; experiment: microbe, parasite or virus in culture; conditions: Severe acute respiratory syndrome coronavirus 2, Calu-3, 48 h
[9] = in vitro; conditions: for viability: Anti-SARS-CoV-2 screening on Calu-3 cells: viability [% of control], Calu-3 cells
[10] = test system: SARS-CoV-2; conditions: cited from earlier work
[11] = in vitro; conditions: human
[12] = Huh-7.5 cells, dose series, maximum tested dose 5 µM
[13] = Calu-3 cells, immunofluorescence imaging
[14] = Human coronavirus 229E, Huh7.5, 48 h, read-out: IC50 against HCoV-229E
[15] = Calu-3 cells, screening dose 5 µM, 48 hours post-inoculation
[16] = Human coronavirus 229E, Huh7.5, read-out: IC50 (µM), HCoV 229E
[17] = Huh-7.5/F-Luc cells, maximum tested dose 5 µM

SMILES	Anti-SARS-CoV-2 screening on Calu-3 cells: intracellular SARS-CoV-2 infection measured via immunofluorescence imaging [% of control] [4, 13]	viability [9] [%]	IC50 [1, 16] [µM]	CC50 (µM) [2, 17]	viability at 5 µM [11] [%]	further results
COc1cc(F)ccc1-c1cc(Nc2cc(CS(C)(=N)=O)ccn2)ncc1F (single isomer, unassigned; (+)) [(+)-BAY-1251152, reference compound]	51.46 % of control	–	–	–	–	IC50 ([1]; HCoV 229E infection, dose series, max. dose 5 µM, read-out: IC50): 0.13 µM; CC50 (µM) [2, 12]: greater than maximum tested dose; % cell viability at max. dose [5 µM] ([2]; at max. dose 5 µM): 115.26%; virus load in the culture fluid [3]: reduced virus load; Anti-SARS-CoV-2 screening on Calu-3 cells: viability [% of control] ([4]; Calu-3 cells): 100.11 % of control; outcome against confirmation criteria of the SARS-CoV-2 counter-screen (<50% infected cell, >75% total cells) ([4]; Calu-3 cells): did not meet our stringent confirmation criteria
CCC(CC)COC(=O)[C@H](C)N[P@](=O)(OC[C@H]1O[C@@](C#N)(c2ccc3c(N)ncnn23)[C@H](O)[C@@H]1O)Oc1ccccc1 [Remdesivir]	1.09 % of control	–	–	–	–	IC50 ([1]; Human coronavirus 229E, Huh7.5): 0.02 µM; IC50 [1, 14]: 0.0157 µM; IC50 [5]: 0.83 nM; antiviral activity against SARS-CoV-2 in HAE cells [6]: dose dependently inhibited SARS-CoV-2 infection; CC50 (µM) [2, 12]: greater than maximum tested dose; SI (CC50/IC50) ([3]; Calu-3 cells): > 6.76; cytotoxicity in HAE cells, GAPDH mRNA [7]: without reducing GAPDH mRNA levels; IC50 [8]: 180 nM; IC90 [8]: 0.31 µM
COCCN1CCN(Cc2ccc(-c3n[nH]c4c3C(=O)c3c(NC(=O)NN5CCOCC5)cccc3-4)cc2)CC1 [RGB-286638, reference compound]	123.82 % of control	19	–	–	–	IC50 ([1]; Human coronavirus 229E, Huh7.5): 0.12 µM; CC50 (µM) [2, 12]: greater than maximum tested dose; virus load in the culture fluid [3, 15]: reduced virus load; outcome against confirmation criteria of the SARS-CoV-2 counter-screen (<50% infected cell, >75% total cells) ([4]; Calu-3 cells): did not meet our stringent confirmation criteria
C=C(CC(=O)OCCCCCCCC)C(=O)O [4-OI, 4-octyl-itaconate]	–	–	–	–	–	anti-SARS-CoV-2 effects [10]: anti-SARS-CoV-2 effects at high concentrations
CCc1cnn2c(NCc3ccc[n+]([O-])c3)cc(N3CCCC[C@H]3CCO)nc12 [Dinaciclib, reference compound]	–	–	–	–	–	CC50 (µM) [2]: greater than maximum tested dose; virus load in the culture fluid [3, 15]: reduced virus load; Anti-SARS-CoV-2 screening on Calu-3 cells: intracellular SARS-CoV-2 infection measured via immunofluorescence imaging [% of control] [4]: 72.14 % of control; outcome against confirmation criteria of the SARS-CoV-2 counter-screen (<50% infected cell, >75% total cells) ([4]; Calu-3 cells): did not meet our stringent confirmation criteria; inhibition of SARS-CoV-2 infection ([10]; Vero E6 and A549/ACE2 cells): nanomolar efficacy; viability at 48 h, 5 µM [9]: 29.7%
O=Cc1c2[nH]c3ccccc3c2cc2[nH]c3ccccc3c12 [FICZ, 6-formylindolo(3,2-b) carbazole]	–	–	–	–	–	inhibition of SARS-CoV-2 infection ([10]; Vero cells): inhibited SARS-CoV-2 infection of Vero cells
COc1cc(Nc2ncc(F)c(Nc3ccc4c(n3)N(COP(=O)(O)O)C(=O)C(C)(C)O4)n2)cc(OC)c1OC [RFM-004-140-7]	134.69 % of control	–	4.09	greater than maximum tested dose	93.7	viability at 48 h, 5 µM [9]: 86.2%
CCCCc1oc2ccc(C(=O)OC(C)C)cc2c1C(=O)c1ccc(CCCN(CCCC)CCCC)cc1 [RFM-009-487-1]	97.65 % of control	87.8	1.23	greater than maximum tested dose	122	–
CC(=O)N(C)C1(c2ccccc2)CCN(CCC[C@]2(c3ccc(Cl)c(Cl)c3)CCCN(C(=O)c3ccccc3)C2)CC1 [RFM-000-080-6]	106.27 % of control	113	1.5	greater than maximum tested dose	131	–
CC(Cc1ccccc1)NCCC(c1ccccc1)c1ccccc1 (centres unmarked) [RFM-000-835-5]	102.68 % of control	–	1.53	greater than maximum tested dose	140	viability at 48 h, 5 µM [9]: 102%
CN(C)CC(O)COc1ccccc1C1CC2CCC1C2 (centres unmarked) [RFM-012-243-0]	114.97 % of control	95.3	1.84	greater than maximum tested dose	142	–
COC(=O)/C=C/C(=O)OC [DMF, dimethyl fumarate]	–	–	–	–	–	anti-SARS-CoV-2 effects [10]: anti-SARS-CoV-2 effects at high concentrations
C[C@@H]1CCCN1CCc1cc2cc(-c3ccc(C#N)cc3)ccc2o1 [RFM-000-099-7]	114.07 % of control	98.3	1.39	greater than maximum tested dose	152	–
Cc1c(NCCN2CCCC2)cc(C(=O)C(C)(C)C)cc1N1CCN(c2ncnc3[nH]nc(Br)c23)CC1 [RFM-011-974-4]	103.98 % of control	104	1.4	greater than maximum tested dose	124	–
CC1(C)CC[C@]2(C(=O)O)CC[C@]3(C)[C@H](C(=O)C=C4[C@@]5(C)C=C(C#N)C(=O)C(C)(C)[C@@H]5CC[C@]43C)[C@@H]2C1 [Bardoxolone, reference compound]	95.03 % of control	–	–	–	–	IC50 ([1]; Human coronavirus 229E, Huh7.5): 0.04 µM; IC50 [1, 14]: 0.037 µM; antiviral activity against SARS-CoV-2 in HAE cells [6]: the reduction in viral genome copies could not be separated from an increase in cytotoxicity; SI (CC50/IC50) ([3]; Calu-3 cells): 3.90; outcome against confirmation criteria of the SARS-CoV-2 counter-screen (<50% infected cell, >75% total cells) ([4]; Calu-3 cells): did not meet the inclusion criteria; viability at 48 h, 5 µM [9]: 118%; IC50 [8]: 1890 nM; IC90 [8]: 7.03 µM
Cn1cc(C2=C(c3c4n(c5ccccc35)CCC(CN)C4)C(=O)NC2=O)c2ccccc21 (centres unmarked) [RFM-009-039-1]	111.69 % of control	95.9	1.73	greater than maximum tested dose	154	–
COc1ccc2[nH]c([S+]([O-])Cc3ncc(C)c(OC)c3C)nc2c1 (centres unmarked) [OMP, omeprazole]	–	–	–	–	–	inhibition of SARS-CoV-2 infection ([10]; Vero cells): inhibited SARS-CoV-2 infection of Vero cells
OC1CCN(CCCN2c3ccccc3Sc3ccc(C(F)(F)F)cc32)C1 (centres unmarked) [RFM-010-589-5]	102.40 % of control	110	1.4	greater than maximum tested dose	146	–
CCCN(CCC)C(=O)C(Cc1ccc(OCCCN2CCN(C)CC2)cc1)NC(=O)c1cccc(Cl)c1 (centres unmarked) [RFM-012-155-1]	95.12 % of control	104	3.67	greater than maximum tested dose	126	–
CN(C)CCCN1c2ccccc2Sc2ccc(C(F)(F)F)cc21 [RFM-004-217-1]	–	–	1.19	–	159	CC50 (µM) [2]: greater than maximum tested dose; Anti-SARS-CoV-2 screening on Calu-3 cells: intracellular SARS-CoV-2 infection measured via immunofluorescence imaging [% of control] [4]: 110.23 % of control; viability at 48 h, 5 µM [9]: 72.7%
Cc1nc(Nc2ncc(N3CCN(C)[C@H](C)C3)c(Nc3cc(C)n(C)n3)n2)cc(C2CC2)c1F [RFM-012-989-5]	114.63 % of control	114	1.97	greater than maximum tested dose	125	–
OCCN1CCN(CCCC2c3ccc(F)cc3Sc3ccc(C(F)(F)F)cc32)CC1 (centres unmarked) [RFM-010-066-3]	109.58 % of control	86.5	2.98	greater than maximum tested dose	148	–
CC(OCCN1CCCCCC1)(c1ccccc1)c1ccc(Cl)cc1 (centres unmarked) [RFM-000-944-9]	104.31 % of control	95.3	1.87	greater than maximum tested dose	146	–
CCCCCCOC(=O)NC(=N)c1ccc(NCc2nc3cc(C(=O)N(CCC(=O)OCC)c4ccccn4)ccc3n2C)cc1 [RFM-002-982-3]	100.41 % of control	106	3.13	greater than maximum tested dose	126	–
CN(C)CCOC(c1ccccc1)c1ccc(Br)cc1 (centres unmarked) [RFM-010-846-3]	102.09 % of control	92.2	2.14	greater than maximum tested dose	157	–

Source: article PMC10916382, “Repurposing screen identifies novel candidates for broad-spectrum coronavirus antivirals and druggable host targets” (Antimicrobial Agents and Chemotherapy, 2024)
